Experimental data published in article PMC3556473, “Absorption, metabolism and excretion of [^14C]pomalidomide in humans following oral administration” (Cancer Chemotherapy and Pharmacology, 2012).
Several values for one entry are separate records, joined by “and”; a condition that tells them apart may be missing. Equal entries are not always repeated.

Columns and labels:
Type in all cases: in vivo, human
[1] = Plasma pharmacokinetics of pomalidomide and its enantiomers (chiral LC–MS/MS) after a single oral 2 mg dose of [14C]pomalidomide
Text: This was an open-label, in-patient, single-dose study in eight non-smoking healthy male adult volunteers conducted in accordance with Good Clinical Practices (GCP) and in compliance with the Declaration of Helsinki. The protocol and consent form were reviewed and approved by the appropriate institutional review board, and all study participants gave written informed consent, before initiation of any study-related procedure. Male subjects were eligible based on standard inclusion/exclusion criteria and were excluded if they had exposure to excess radiation or participated in a study involving radioisotopes within the previous 12 months. Subjects entered the study center on the day prior to dosing and remained at the center for up to 15 days following dosing or until the total radioactivity recovered in excreta was ≥90 % or the radioactivity recovered in excreta per day on three consecutive days was ≤1 % of the administered radioactive dose.
(§1) Each subject was administered a single oral suspension of 2 mg (100 μCi) of [^14C]pomalidomide in seltzer water (75 mL) followed by administration of an additional 140 mL of distilled water. Subjects were fasted for 8 h prior to and 4 h following dose administration. The residual radioactivity in the dosing vials was determined, and for six of the eight subjects (subjects 1–4, 6 and 8), the administered dose (1.93–2.02 mg) was close to the target dose of 2 mg. For subjects 5 and 7, a significant amount of radioactivity remained in the dose vial, resulting in administered doses of 1.59 and 1.51 mg, respectively. Calculations for percent of dose recovered in excreta were based on the actual administered doses.
(§2) Blood was collected into pre-chilled K3EDTA tubes at pre-dose, 0.5, 1, 1.5, 2, 2.5, 3, 4, 6, 8, 10, 12, 24, 48, 72, 120 and 168 h following dose administration. Blood for radioactivity counting was transferred to a clean tube and stored at or below 4 °C until analyzed. Plasma was harvested by centrifugation from the remaining blood. A plasma sample for radioactivity counting was transferred to a fresh tube. Three plasma aliquots were transferred to tubes containing citric acid for metabolite profiling and for determination of pomalidomide enantiomer concentrations in plasma. Urine was collected pre-dose, 0–6, 6-12, 12–24 and every 24 h thereafter up to 216 h (9 days) following dose administration and were stabilized with one volume of pH 1.5 Sorensen’s citrate buffer (25 mM sodium citrate buffer adjusted to pH 1.5). During the 12- to 24-h collection interval for subject 4, approximately 550 mL of urine was inadvertently poured into the wrong collection urinal and the sample was lost. […] Individual fecal samples were collected pre-dose and for up to 9 days following dose administration, and homogenized using approximately three volumes by weight of pH 1.5 Sorensen’s citrate buffer. All urine, fecal homogenates and plasma samples were stored at or below −20 °C until analyzed.
Plasma concentrations of each pomalidomide enantiomer were determined using a chiral LC–MS/MS assay. The pomalidomide enantiomers and ^13C-labeled pomalidomide (internal standard; IS) were extracted from plasma (stabilized with citric acid) using liquid–liquid extraction with methyl tertiary butyl ether. After transfer to a new tube, the solvent was evaporated, and the samples were reconstituted and injected for LC–MS/MS analysis using a Chiral AGP (50 × 3.0 mm, 5 μm; Chrom Tech, Inc., Apple Valley, MN) analytical column. Positive ions were measured in the multiple reaction monitoring (MRM) mode using a Sciex API-4000 tandem mass spectrometer equipped with a Turbo Ion Spray source. For the QC samples, the accuracy ranged from 91.0 to 106.9 %. For study samples, the amount of [^14C]-labeled material was accounted for when calculating the concentration of enantiomers in plasma using an appropriate correction factor. […]

[2] = Excretion of radioactivity in urine and feces (mass balance)
Procedure: as §1, §2
(§3) All radioactivity determinations were performed using Tri-Carb model 2900TR liquid scintillation counter (PerkinElmer, Wellesley, MA). For plasma, urine and residual dose vial analysis, duplicate samples were mixed with Ultima Gold XR scintillation cocktail and directly analyzed by liquid scintillation counting. For fecal homogenate and blood samples, duplicate aliquots were weighed, allowed to dry and combusted using a PerkinElmer model 307 sample oxidizer. The resultant [^14C]CO2 was trapped in Carbosorb (PerkinElmer) in combination with Permafluor and assayed by liquid scintillation counting. For all matrices, any sample that was less than two times the background dpm was assigned a value of zero. Using these criteria, the lower limits of quantification in plasma, blood, urine and feces were 0.894 ng [^14C]pomalidomide equivalent/mL (ngEq/mL), 0.939 ngEq/g, 0.871 ngEq/mL and 2.96 ngEq/g, respectively.
The amount of total radioactivity (ngEq) in urine and feces was determined by multiplying the volume or weight of the samples by the radioactivity concentration. The dose recovered at each time point was determined by total radioactivity in the sample, divided by the total dose administered, multiplied by 100 %. For data BLQ values, a value of zero was assigned for calculations of means.

[3] = Pharmacokinetics of total radioactivity in whole blood and plasma after a single oral 2 mg dose of [14C]pomalidomide
Procedure: as §1, §2, §3
Standard pharmacokinetic parameters were estimated from the pomalidomide (as the sum of the enantiomer concentrations at each time point) and enantiomer concentration versus time profiles or the blood and plasma radioactive concentration equivalents versus time profiles using established non-compartmental methods with WinNonlin (Version 5.2, Pharsight Corp., CA). Pre-dose samples that were below the limit of quantification (BLQ) or missing were assigned a numerical value of zero for the calculation of AUC. All post-dose BLQ were treated as missing in the PK analysis.
Total radioactivity in whole blood and plasma was converted to nanogram equivalent (ngEq) concentrations (ngEq/g for whole blood or ngEq/mL for plasma) based on the actual specific activity of the dose.

[4] = percentage of dose, over 216 h, listed as [^14C]pomalidomide
[5] = plasma, as [14C]pomalidomide equivalents, mean ± SD
[6] = whole blood, as [14C]pomalidomide equivalents, mean ± SD

Nc1cccc2c1C(=O)N(C1CCC(=O)NC1=O)C2=O (racemic) [Pomalidomide, (RS)-4-amino-2-(2,6-dioxo-piperidin-3-yl)-isoindoline-1,3-dione]
Cmax ([1]; human, healthy male subjects, mean ± SD (n = 8)): 13 ± 3.9 ng/mL
AUC(0-inf) ([1]; male, human, mean ± SD (n = 8)): 189 ± 52 ng·h/mL
AUC(0-t) ([1]; male, human, mean ± SD (n = 8)): 137 ± 67 ng·h/mL
half-life ([1]; male, human, po, 2 mg, mean ± SD (n = 8), read-out: t ½ (converted)): 11.2 h
Tmax ([1]; male, human, po, 2 mg, median (min–max)): < 3.5 h
t ½ ([1]; mean ± SD (n = 8)): 8.9 ± 3.4 h
T max ([1]; median (min–max)): 3.0 (2.0–6.0) h
mean total recovery of radioactivity (urine + feces) ([2]; % of radioactive dose, collection over 216 h (9 days), eight subjects, listed as [^14C]pomalidomide): 88% and 88.3%
oral absorption ([2]; inferred from urinary radioactivity and unchanged drug in feces): > 70%
radioactivity excreted in feces, mean [2, 4]: 15% and 15.5 ± 2.5%
radioactivity excreted in urine, mean [2, 4]: 73% and 72.8 ± 16.7%
radioactivity recovered within the first 48 h after dose administration ([2]; urine + feces): > 80%
AUC0−t, plasma total radioactivity [3, 5]: 189 ± 88 ng·h/mL
AUC0−∞, plasma total radioactivity [3, 5]: 225 ± 94 ng·h/mL
AUC0–24, TRA (total radioactivity) ([3]; plasma, geometric mean (%CV)): 194 (27.6) ngEq*h/mL
AUC0−∞, TRA (total radioactivity) ([3]; plasma, geometric mean (%CV)): 245 (37.9) ngEq*h/mL
C max, TRA (total radioactivity) ([3]; plasma, geometric mean (%CV)): 14.8 (17.8) ngEq/mL
t ½, TRA (total radioactivity) ([3]; plasma, geometric mean (%CV)): 10.3 (23.5) h
t ½, plasma total radioactivity ([3]; plasma, mean ± SD, listed as [^14C]pomalidomide): 11.2 ± 2.5 h
T max, plasma total radioactivity ([3]; plasma, median (min–max), listed as [^14C]pomalidomide): 3.25 (1.0–4.0) h
T max, TRA (total radioactivity) ([3]; plasma, median and range): 2.5 (1.0–4.0) h
C max, plasma total radioactivity ([3]; plasma, single oral 2 mg, mean ± SD): 12.1 ± 2.2 ng [^14C]pomalidomide equivalent/mL
Radioactivity blood to plasma ratio, AUC0−t ([3]; single oral 2 mg): 0.84
Radioactivity blood to plasma ratio, AUC0−∞ ([3]; single oral 2 mg): 0.87
Radioactivity blood to plasma ratio, C max ([3]; single oral 2 mg): 0.80
AUC0−t, whole blood total radioactivity [3, 6]: 225 ± 99 ng·h/mL
AUC0−∞, whole blood total radioactivity [3, 6]: 260 ± 102 ng·h/mL
t ½, whole blood total radioactivity ([3]; whole blood, mean ± SD): 10.2 ± 1.9 h
T max, whole blood total radioactivity ([3]; whole blood, median (min–max)): 2.5 (1.0–4.0) h
C max, whole blood total radioactivity ([3]; whole blood, single oral 2 mg, mean ± SD): 15.1 ± 2.7 ng [^14C]pomalidomide equivalent/mL
